Test results taken from ChEMBL document CHEMBL5252601, “Hydroxy-xanthones as promising antiviral agents: Synthesis and biological evaluation against human coronavirus OC43” (Bioorg Med Chem Lett, 2023).

Legend:
Human coronavirus OC43 = assay: Antiviral activity against HCoV-OC43 infected in hamster BHK-21 cells assessed as inhibition of viral infectivity per ml at 10 uM measured after 3 days; type: functional; conditions: time 3 day
BHK-21 = assay: Cytotoxicity against hamster BHK-21 cells assessed as reduction in cell viability at 10 uM measured after 3 days; type: toxicity, cell-based, Mesocricetus auratus; conditions: bhk-21, 72 h, time 3 day

SMILES	log(activity) (Human coronavirus OC43)	Activity (BHK-21)
O=C(c1ccccc1O)c1ccc(O)c(O)c1O	1.95	>= 85%
O=c1c2ccccc2oc2c(O)c(O)ccc12 [3,4-DIHYDROXYXANTHONE]	1.95	>= 85%
O=c1c2c(O)cccc2oc2cc(O)cc(O)c12	2	>= 85%
COc1ccc2c(=O)c3c(O)cc(O)cc3oc2c1	2.67	>= 85%
O=c1c2cc(F)ccc2oc2cc(O)cc(O)c12	2.38	>= 85%
O=c1c2cc(O)c(O)cc2oc2cc(O)c([C@@H]3O[C@H](CO)[C@@H](O)[C@H](O)[C@H]3O)c(O)c12 [MANGIFERIN]	3	>= 85%
O=c1c2ccccc2oc2cc(O)cc(O)c12	2.5	>= 85%
Cc1ccc2c(=O)c3c(O)cc(O)cc3oc2c1	2.42	>= 85%
O=C(c1ccccc1O)c1ccc(O)cc1O	2.45	>= 85%
COc1ccc2oc3cc(O)cc(O)c3c(=O)c2c1	2.67	>= 85%
O=c1c2ccc(O)cc2oc2cccc(O)c12	2.2	>= 85%
O=c1c2ccccc2oc2ccccc12 [XANTHONE]	2.04	>= 85%
Cc1ccc2oc3cc(O)cc(O)c3c(=O)c2c1	2.79	>= 85%
